Literature values in PMC4404702 (Molecular imaging and biology : MIB : the official …, 2014).

Tests used:
σ2 = settings: read-out: Ki−σ2
σ1 = settings: read-out: Ki−σ1

Question: With `O=C(Cc1cccc(Br)c1)NCc1ccc(F)cc1` [YUN-143, N-(4′-fluorobenzyl)-4-(3-bromophenyl)acetamide] as the molecule, how does the Ki (σ2) read?
Answer: Its Ki is 6.1 ± 1.5 nM.

Question: And the Ki (σ1)?
Answer: The Ki was 1.2 ± 0.2 nM.
